In ChEMBL document CHEMBL1129610, “3- and 4-pyridylalkyl adamantanecarboxylates: inhibitors of human cytochrome P450(17 alpha) (17 alpha-hydroxylase/C17,20-lyase). Potential nonsteroidal agents for the treatment of prostatic cancer” (J Med Chem, 1996):
Each block holds one compound with its values, some of them ahead of it.

Experiments:
[1] = target: T1, Steroid 17-alpha-hydroxylase/17,20 lyase (Homo sapiens, UniProt P05093); assay type: microsomes, Testis, Microsomes
T1 sequence (P05093 whole entry): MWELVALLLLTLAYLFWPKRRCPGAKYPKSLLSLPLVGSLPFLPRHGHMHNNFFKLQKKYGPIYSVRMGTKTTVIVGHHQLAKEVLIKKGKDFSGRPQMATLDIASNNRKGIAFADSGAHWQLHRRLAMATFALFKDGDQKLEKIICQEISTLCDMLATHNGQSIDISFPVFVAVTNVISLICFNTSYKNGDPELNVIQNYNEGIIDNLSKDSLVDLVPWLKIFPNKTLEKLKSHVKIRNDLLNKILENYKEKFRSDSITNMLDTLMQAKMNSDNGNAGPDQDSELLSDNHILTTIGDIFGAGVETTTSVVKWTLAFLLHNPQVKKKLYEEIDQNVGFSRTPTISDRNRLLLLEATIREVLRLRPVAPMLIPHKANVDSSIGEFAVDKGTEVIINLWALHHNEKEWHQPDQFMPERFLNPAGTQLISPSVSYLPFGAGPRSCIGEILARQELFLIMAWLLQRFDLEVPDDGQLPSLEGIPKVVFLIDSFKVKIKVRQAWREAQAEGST

[2] = target: T1, Steroid 17-alpha-hydroxylase/17,20 lyase
in vitro [3] = settings: rat, in vivo
Rattus norvegicus [4] = organism: Rattus norvegicus; assay type: functional
Mus musculus [5] = organism: Mus musculus; assay type: functional
Mus musculus [6] = organism: Mus musculus; assay type: functional; remark: listed apart in the source
in vitro [7] = settings: rat, in vivo; remark: listed apart in the source
Rattus norvegicus [8] = organism: Rattus norvegicus; assay type: functional, Blood
in vitro [9] = settings: rat, in vivo; remark: listed apart in the source
Homo sapiens = organism: Homo sapiens; assay type: functional, Blood
Mus musculus [10] = organism: Mus musculus; assay type: functional, Blood

IC50 [1]: 0.21 µM
IC50 [2]: 0.82 µM
SMILES: C[C@H](NC(=O)C12CC3CC(CC(C3)C1)C2)c1ccncc1

half-life (in vitro [3]): 30 s
SMILES: C[C@H](OC(=O)C12CC3CC(CC(C3)C1)C2)c1ccncc1

half-life (in vitro [3]): 30 s
SMILES: C[C@@H](OC(=O)C12CC3CC(CC(C3)C1)C2)c1ccncc1

half-life at 1 h (in vitro [7]): > 1 h
SMILES: CC(C)(OC(=O)C12CC3CC(CC(C3)C1)C2)c1ccncc1
Substrate metabolized at 1hr (Rattus norvegicus [4]): 0%
Substrate metabolized at 1hr (Mus musculus [5]): 0%
Substrate metabolized at 1hr (Mus musculus [6]): 2%

half-life at 1 min (in vitro [9]): < 60 s
SMILES: O=C(OCc1ccncc1)C12CC3CC(CC(C3)C1)C2
Substrate metabolized at 1hr (Rattus norvegicus [8]): 100%
Substrate metabolized at 1hr (Homo sapiens): 45%
Substrate metabolized at 1hr (Mus musculus [10]): 100%

IC50 [1]: 0.43 µM
IC50 [2]: 1.9 µM
SMILES: C[C@@H](NC(=O)C12CC3CC(CC(C3)C1)C2)c1ccncc1
